Data: PubChem BioAssay (NCI)
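Exposure lasted 48 hours, with cells grown in 96-well plates and compounds tested at five concentrations. GI50 is the concentration that inhibits growth by half. The concentration for full growth arrest is given as TGI.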

Assays:
Assay in all cases: NCI-60 cell line screen, 48 h
786-0 renal = system: 786-0 renal
A498 renal = system: A498 renal
A549 NSCLC = system: A549 NSCLC
ACHN renal = system: ACHN renal
CAKI-1 renal = system: CAKI-1 renal
CCRF-CEM leukemia = system: CCRF-CEM leukemia
COLO 205 colon = system: COLO 205 colon
DU-145 prostate = system: DU-145 prostate
EKVX NSCLC = system: EKVX NSCLC
HCC-2998 colon = system: HCC-2998 colon
HCT-116 colon = system: HCT-116 colon
HCT-15 colon = system: HCT-15 colon
HOP-62 NSCLC = system: HOP-62 NSCLC
HOP-92 NSCLC = system: HOP-92 NSCLC
HS 578T breast = system: HS 578T breast
HT29 colon = system: HT29 colon
IGROV1 ovarian = system: IGROV1 ovarian
K-562 leukemia = system: K-562 leukemia
LOX IMVI melanoma = system: LOX IMVI melanoma
M14 melanoma = system: M14 melanoma
MALME-3M melanoma = system: MALME-3M melanoma
MDA-MB-231 breast = system: MDA-MB-231 breast
MDA-MB-435 = system: MDA-MB-435
MDA-N = system: MDA-N
MOLT-4 leukemia = system: MOLT-4 leukemia
NCI-H226 lung = system: NCI-H226 lung
NCI-H23 lung = system: NCI-H23 lung
NCI-H460 lung = system: NCI-H460 lung
NCI-H522 lung = system: NCI-H522 lung
NCI/ADR-RES ovarian = system: NCI/ADR-RES ovarian
OVCAR-3 ovarian = system: OVCAR-3 ovarian
OVCAR-4 ovarian = system: OVCAR-4 ovarian
OVCAR-5 ovarian = system: OVCAR-5 ovarian
OVCAR-8 ovarian = system: OVCAR-8 ovarian
PC-3 prostate = system: PC-3 prostate
RPMI-8226 leukemia = system: RPMI-8226 leukemia
RXF 393 renal = system: RXF 393 renal
SF-268 CNS = system: SF-268 CNS
SF-295 CNS = system: SF-295 CNS
SF-539 CNS = system: SF-539 CNS
SK-MEL-2 melanoma = system: SK-MEL-2 melanoma
SK-MEL-28 melanoma = system: SK-MEL-28 melanoma
SK-MEL-5 melanoma = system: SK-MEL-5 melanoma
SK-OV-3 ovarian = system: SK-OV-3 ovarian
SN12C renal = system: SN12C renal
SNB-19 CNS = system: SNB-19 CNS
SNB-75 CNS = system: SNB-75 CNS
SR leukemia = system: SR leukemia
SW-620 colon = system: SW-620 colon
T-47D breast = system: T-47D breast
U251 CNS = system: U251 CNS
UACC-257 melanoma = system: UACC-257 melanoma
UACC-62 melanoma = system: UACC-62 melanoma
UO-31 renal = system: UO-31 renal
BT-549 breast = system: BT-549 breast
HL-60(TB) leukemia = system: HL-60(TB) leukemia
KM12 colon = system: KM12 colon
MCF7 breast = system: MCF7 breast
TK-10 renal = system: TK-10 renal

Fc1ccccc1-c1nn2c(C34CC5CC(CC(C5)C3)C4)nnc2s1
TGI (786-0 renal): > 100 µM | TGI (A498 renal): > 100 µM | TGI (A549 NSCLC): > 100 µM | TGI (ACHN renal): > 100 µM | TGI (CAKI-1 renal): > 100 µM | TGI (CCRF-CEM leukemia): > 100 µM | TGI (COLO 205 colon): > 100 µM | TGI (DU-145 prostate): > 100 µM | TGI (EKVX NSCLC): > 100 µM | TGI (HCC-2998 colon): > 100 µM | TGI (HCT-116 colon): > 100 µM | TGI (HCT-15 colon): > 100 µM | TGI (HOP-62 NSCLC): > 100 µM | TGI (HOP-92 NSCLC): > 100 µM | TGI (HS 578T breast): > 100 µM | TGI (HT29 colon): > 100 µM | TGI (IGROV1 ovarian): > 100 µM | TGI (K-562 leukemia): > 100 µM | TGI (LOX IMVI melanoma): > 100 µM | TGI (M14 melanoma): > 100 µM | TGI (MALME-3M melanoma): > 100 µM | TGI (MDA-MB-231 breast): > 100 µM | TGI (MDA-MB-435): > 100 µM | TGI (MDA-N): > 100 µM | TGI (MOLT-4 leukemia): > 100 µM | TGI (NCI-H226 lung): > 100 µM | TGI (NCI-H23 lung): > 100 µM | TGI (NCI-H460 lung): > 100 µM | TGI (NCI-H522 lung): > 100 µM | TGI (NCI/ADR-RES ovarian): > 100 µM | TGI (OVCAR-3 ovarian): > 100 µM | TGI (OVCAR-4 ovarian): > 100 µM | TGI (OVCAR-5 ovarian): > 100 µM | TGI (OVCAR-8 ovarian): > 100 µM | TGI (PC-3 prostate): > 100 µM | TGI (RPMI-8226 leukemia): > 100 µM | TGI (RXF 393 renal): > 100 µM | TGI (SF-268 CNS): > 100 µM | TGI (SF-295 CNS): > 100 µM | TGI (SF-539 CNS): > 100 µM | TGI (SK-MEL-2 melanoma): > 100 µM | TGI (SK-MEL-28 melanoma): > 100 µM | TGI (SK-MEL-5 melanoma): > 100 µM | TGI (SK-OV-3 ovarian): > 100 µM | TGI (SN12C renal): > 100 µM | TGI (SNB-19 CNS): > 100 µM | TGI (SNB-75 CNS): > 100 µM | TGI (SR leukemia): > 100 µM | TGI (SW-620 colon): > 100 µM | TGI (T-47D breast): > 100 µM | TGI (U251 CNS): > 100 µM | TGI (UACC-257 melanoma): > 100 µM | TGI (UACC-62 melanoma): > 100 µM | TGI (UO-31 renal): > 100 µM

O=C(CC12CC3CC(CC(C3)C1)C2)NCCOCCOCCOCCNC(=O)c1cc2c(o1)C(=O)c1ccccc1C2=O
GI50 (786-0 renal): 2.55 µM | TGI (786-0 renal): 8.87 µM | GI50 (A498 renal): 1.59 µM | TGI (A498 renal): 3.12 µM | GI50 (A549 NSCLC): 0.331 µM | TGI (A549 NSCLC): 1.18 µM | GI50 (ACHN renal): 1.51 µM | TGI (ACHN renal): 3.12 µM | GI50 (BT-549 breast): 1.33 µM | TGI (BT-549 breast): 2.68 µM | GI50 (CAKI-1 renal): 1.93 µM | TGI (CAKI-1 renal): 5.74 µM | GI50 (CCRF-CEM leukemia): 2.72 µM | TGI (CCRF-CEM leukemia): 20.7 µM | GI50 (COLO 205 colon): 1.63 µM | TGI (COLO 205 colon): 3.33 µM | GI50 (DU-145 prostate): 0.407 µM | TGI (DU-145 prostate): 1.28 µM | GI50 (EKVX NSCLC): 2.23 µM | TGI (EKVX NSCLC): 5.29 µM | GI50 (HCC-2998 colon): 1.89 µM | TGI (HCC-2998 colon): 3.6 µM | GI50 (HCT-116 colon): 1.87 µM | TGI (HCT-116 colon): 6.33 µM | GI50 (HCT-15 colon): 1.43 µM | TGI (HCT-15 colon): 3.31 µM | GI50 (HL-60(TB) leukemia): 1.4 µM | TGI (HL-60(TB) leukemia): 4.98 µM | GI50 (HOP-62 NSCLC): 1.89 µM | TGI (HOP-62 NSCLC): 3.33 µM | GI50 (HOP-92 NSCLC): 2.45 µM | TGI (HOP-92 NSCLC): 7.3 µM | GI50 (HS 578T breast): 1.99 µM | TGI (HS 578T breast): 6.59 µM | GI50 (HT29 colon): 2.46 µM | TGI (HT29 colon): 6.36 µM | GI50 (IGROV1 ovarian): 1.66 µM | TGI (IGROV1 ovarian): 4.6 µM | GI50 (K-562 leukemia): 1.32 µM | TGI (K-562 leukemia): 5.32 µM | GI50 (KM12 colon): 2.87 µM | TGI (KM12 colon): 10.3 µM | GI50 (LOX IMVI melanoma): 0.712 µM | TGI (LOX IMVI melanoma): 2.4 µM | GI50 (M14 melanoma): 0.222 µM | TGI (M14 melanoma): 0.491 µM | GI50 (MALME-3M melanoma): 0.157 µM | TGI (MALME-3M melanoma): 0.328 µM | GI50 (MCF7 breast): 0.808 µM | TGI (MCF7 breast): 2.73 µM | GI50 (MDA-MB-231 breast): 2.43 µM | TGI (MDA-MB-231 breast): 9.81 µM | GI50 (MDA-MB-435): 0.2 µM | TGI (MDA-MB-435): 0.392 µM | GI50 (MOLT-4 leukemia): 2.02 µM | TGI (MOLT-4 leukemia): 6.22 µM | GI50 (NCI-H226 lung): 1.75 µM | TGI (NCI-H226 lung): 4 µM | GI50 (NCI-H23 lung): 0.173 µM | TGI (NCI-H23 lung): 1.09 µM | GI50 (NCI-H460 lung): 0.398 µM | TGI (NCI-H460 lung): 1.44 µM | GI50 (NCI-H522 lung): 1.54 µM | TGI (NCI-H522 lung): 3.51 µM | GI50 (NCI/ADR-RES ovarian): 2.47 µM | TGI (NCI/ADR-RES ovarian): 7.65 µM | GI50 (OVCAR-3 ovarian): 0.395 µM | TGI (OVCAR-3 ovarian): 1.79 µM | GI50 (OVCAR-4 ovarian): 1.12 µM | TGI (OVCAR-4 ovarian): 2.33 µM | GI50 (OVCAR-5 ovarian): 1.75 µM | TGI (OVCAR-5 ovarian): 3.17 µM | GI50 (OVCAR-8 ovarian): 1.15 µM | TGI (OVCAR-8 ovarian): 10.6 µM | GI50 (PC-3 prostate): 1.79 µM | TGI (PC-3 prostate): 16.1 µM | GI50 (RPMI-8226 leukemia): 1.57 µM | TGI (RPMI-8226 leukemia): 4.61 µM | GI50 (RXF 393 renal): 1.55 µM | TGI (RXF 393 renal): 2.95 µM | GI50 (SF-268 CNS): 2.17 µM | TGI (SF-268 CNS): 5.59 µM | GI50 (SF-295 CNS): 1.48 µM | TGI (SF-295 CNS): 2.85 µM | GI50 (SF-539 CNS): 1.44 µM | TGI (SF-539 CNS): 2.78 µM | GI50 (SK-MEL-2 melanoma): 1.64 µM | TGI (SK-MEL-2 melanoma): 3.93 µM | GI50 (SK-MEL-28 melanoma): 1.7 µM | TGI (SK-MEL-28 melanoma): 3.27 µM | GI50 (SK-MEL-5 melanoma): 0.181 µM | TGI (SK-MEL-5 melanoma): 0.343 µM | GI50 (SK-OV-3 ovarian): 2.55 µM | TGI (SK-OV-3 ovarian): 6.06 µM | GI50 (SN12C renal): 1.03 µM | TGI (SN12C renal): 2.26 µM | GI50 (SNB-19 CNS): 1.32 µM | TGI (SNB-19 CNS): 7.63 µM | GI50 (SNB-75 CNS): 2.02 µM | TGI (SNB-75 CNS): 3.51 µM | GI50 (SR leukemia): 1.67 µM | TGI (SR leukemia): 8.76 µM | GI50 (SW-620 colon): 1.68 µM | TGI (SW-620 colon): 4.61 µM | GI50 (T-47D breast): 1.74 µM | TGI (T-47D breast): 5.86 µM | GI50 (TK-10 renal): 3.14 µM | TGI (TK-10 renal): 5.78 µM | GI50 (U251 CNS): 1.53 µM | TGI (U251 CNS): 3.09 µM | GI50 (UACC-257 melanoma): 1.22 µM | TGI (UACC-257 melanoma): 2.52 µM | GI50 (UACC-62 melanoma): 0.343 µM | TGI (UACC-62 melanoma): 1.19 µM | GI50 (UO-31 renal): 1.51 µM | TGI (UO-31 renal): 3.13 µM
